These results are taken from patent US8410284B2, “Cyclic benzimidazole derivatives useful as anti-diabetic agents” (Merck Sharp & Dohme Corp, priority 2008, dated 2013).

The test system of one data set is ob/ob and db/db mice. Conditions: following 8 weeks of administration; cited from earlier work.
The target in data set [1] is recombinant human AMPK complex 1 (containing α1β1γ1) (Homo sapiens, UniProt Q13131+Q9Y478). The experiment in a line: In vitro AMPK activation assay (AMPKSAMSF). Conditions: recombinant human AMPK complex 1 (α1β1γ1); for Emax: read-out: maximum AMP activation. Type of data set: biochemical. As to the method: AMPKSAMSF (In Vitro AMPK Activation Assay)
recombinant human AMPK complex 1 (containing α1β1γ1), sequence (Q13131 whole entry): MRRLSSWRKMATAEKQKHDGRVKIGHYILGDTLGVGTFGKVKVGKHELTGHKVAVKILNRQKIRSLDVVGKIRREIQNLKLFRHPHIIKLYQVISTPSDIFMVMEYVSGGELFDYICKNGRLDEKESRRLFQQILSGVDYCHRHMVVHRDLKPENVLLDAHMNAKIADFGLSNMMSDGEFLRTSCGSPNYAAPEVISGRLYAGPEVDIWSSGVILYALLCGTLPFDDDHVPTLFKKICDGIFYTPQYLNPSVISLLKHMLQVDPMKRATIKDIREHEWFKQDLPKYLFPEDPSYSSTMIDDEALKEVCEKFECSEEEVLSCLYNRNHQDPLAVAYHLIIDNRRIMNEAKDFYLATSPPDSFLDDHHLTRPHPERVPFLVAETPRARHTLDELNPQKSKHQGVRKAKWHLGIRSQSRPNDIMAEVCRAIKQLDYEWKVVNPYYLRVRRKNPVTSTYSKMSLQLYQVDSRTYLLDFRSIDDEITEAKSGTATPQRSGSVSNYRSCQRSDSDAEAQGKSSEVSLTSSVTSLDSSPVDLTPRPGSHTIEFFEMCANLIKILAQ
recombinant human AMPK complex 1 (containing α1β1γ1), sequence (Q9Y478 whole entry): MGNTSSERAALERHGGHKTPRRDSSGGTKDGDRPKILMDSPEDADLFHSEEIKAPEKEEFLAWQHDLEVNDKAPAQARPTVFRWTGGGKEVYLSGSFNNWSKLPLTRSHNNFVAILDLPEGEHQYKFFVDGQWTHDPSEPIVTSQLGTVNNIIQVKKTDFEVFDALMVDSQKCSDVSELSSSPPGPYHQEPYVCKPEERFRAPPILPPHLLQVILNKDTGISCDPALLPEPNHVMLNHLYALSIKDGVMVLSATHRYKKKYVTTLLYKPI
recombinant human AMPK complex 1 (containing α1β1γ1), sequence (P54619 whole entry partner): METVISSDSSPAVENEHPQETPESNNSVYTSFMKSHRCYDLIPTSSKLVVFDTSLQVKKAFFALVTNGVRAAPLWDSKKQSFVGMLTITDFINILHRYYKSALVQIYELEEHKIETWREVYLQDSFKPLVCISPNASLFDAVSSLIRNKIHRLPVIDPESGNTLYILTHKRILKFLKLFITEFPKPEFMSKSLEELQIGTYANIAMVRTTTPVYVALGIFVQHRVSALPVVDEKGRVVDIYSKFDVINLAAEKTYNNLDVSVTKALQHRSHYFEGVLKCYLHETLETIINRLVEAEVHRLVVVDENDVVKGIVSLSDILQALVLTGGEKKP
The recombinant human AMPK complex 1 (containing α1β1γ1) was obtained from baculovirus expression system. Recombinant viruses were generated by cotransfection of AMPK/pBacPak9 clones with Baculogold baculovirus DNA (Pharmingen) in spodoptera frugiperda 21 cells according to the manufacturer's instructions. Each round of virus amplification was performed for 5 days in Grace's medium containing 10% serum. Virus that had been subjected to three rounds of amplification was used for all protein production procedures. To express the AMPK complex, sf21 cells were adapted to serum free medium (SF900 II, Invitrogen) by sequential dilution from serum containing stocks into SF900 II medium and maintained in shaker flasks at 90 rpm at 27° C. The recombinant AMPK enzyme complex was produced by triple infection, one recombinant virus for each of the subunits, in sf21 cells under serum free conditions. Cells were infected in log phase, 1×10^6 cells/ml, at a multiplicity of infection of ˜5. Cells were harvested by centrifugation at 10,000×g for 15 minutes after 72 hours of infection with viruses. The insect cell pellet from 2 liters of culture was resuspended in 50 ml lysis buffer (20 mM Tris-HCl, 50 mM NaCl, 50 mM NaF, 30 mM Na PPi, 0.25 M sucrose, 10 mM ZnCl2, 2 mM DTT, 0.4 mg/ml digitonin) and subjected to two cycles of freeze-thaw lysis in a dry-ice ethanol bath. Insoluble material was removed by centrifugation at 10,000×g and the supernatant was fractionated with use of polyethylene glycol (PEG). The protein fraction precipitating between 2.5 and 6% PEG was used for further purification using a Blue-Sepharose step (Zhou et al, J. Clin. Invest. 108, 1167-1174, 2001).
The total in vitro AMPK activation assay volume is 50 μl in a 96-well plate. The reaction mixture contained 100 μM ATP (0.5 μCi ^33P-ATP per reaction), and 50 μM SAMS (HMRSAMSGLHLVKRR) in a buffer (20 mM HEPES, pH 7.0, 5 mM MgCl2, 0.01% Brij35). The reaction was initiated with addition of the enzyme. After 30-minute incubation at 30° C., the reaction was stopped by addition of 80 μl 1% H3PO4. Aliquots (100 μl) were transferred to 96-well MultiScreen plates (MAPHNOB50; Millipore Corp., Bedford, Mass., USA). The plate was washed three times with 1% H3PO4 followed by detection in a Top-count. The counts per minute from the basal activity (the reaction without activator) was subtracted from each well and the data were expressed as % maximum AMP activation followed by EC50 calculation.

Where a name gives a salt, the structure may show the parent alone.

For `NC(=O)c1ncn([C@@H]2O[C@H](CO)[C@@H](O)[C@H]2O)c1N` [AICAR], the blood glucose reduction with ob/ob and db/db mice was 35%. As for `Cc1ccc(Oc2nc3cc(-c4ccc(-c5ccccc5)cc4)c(Cl)cc3[nH]2)cc1P(=O)(O)O` (as salt: salt) [Example 1, ((5-(4-Biphenyl)-6-chloro-1H-benzimidazol-2-yl)oxo)-4-methylphen-3-ylphosphonic acid], the melting point (commonly the temperature of the solid-liquid transition) lay within 225 to 228 °C. With `O=P(O)(O)c1cncc(Oc2nc3cc(-c4ccc(-c5ccccc5)cc4)c(Cl)cc3[nH]2)c1` [Example 12, [5-(5-Biphenyl-4-yl-6-chloro-1H-benzoimidazol-2-yloxy)-pyridin-3-yl]-phoshponic acid], the Emax in data set [1] was greater than 80%.

Regarding `O=P(O)(O)c1cccc(Oc2nc3cc(-c4ccc(-c5ccccc5)cc4)c(Cl)cc3[nH]2)c1` [Example 2, ((5-(4-Biphenyl)-6-chloro-1H-benzimidazol-2-yl)oxo)phen-3-ylphosphonic acid], the melting point fell in the range of 199 to 205 °C. Besides, in data set [1], the EC50 (commonly the concentration needed to bring the measured effect to its halfway point) turned out to be 2.5 nM and the Emax was greater than 80%. In addition, in data set [1] (basal activity subtracted), the “% Maximum AMP Activation of human AMPK Complex 1” value stood at 205%.

Regarding `O=P(O)(O)c1cccc(Oc2nc3cc(-c4ccc(-c5ccccc5)cc4)c(F)cc3[nH]2)c1` [Example 13, {3-[(5-biphenyl-4-yl-6-fluoro-1H-benzimidazol-2-yl)oxy]phenyl}phosphonic acid], in data set [1], the Emax was greater than 80%. The same measure, in the same setting: then `O=P1(c2cccc(Oc3nc4cc(-c5ccc(-c6ccccc6)cc5)c(Cl)cc4[nH]3)c2)OCCC(c2cccc(Cl)c2)O1` (stereo not drawn) [Example 24, Cis-5-Biphenyl-4-yl-6-chloro-2-[3-4-(3-chloro-phenyl)-2-oxo-2-lambda*5*-[1,3,2]dioxaphosphinan-2-ylphenoxy]-1H-benzoimidazole], with greater than 80%. For the molecule `Cc1ccc(Cc2nc3cc(-c4ccc(-c5ccccc5)cc4)c(Cl)cc3[nH]2)cc1P(=O)(O)O` [Example 11, {5-[(5-biphenyl-4-yl-6-chloro-1H-benzimidazol-2-yl)methyl]-2-methylphenyl}phosphonic acid], the melting point is greater than 220 °C. Further, in data set [1], the Emax is greater than 80%.
